In patent US7553974B2, “Crystal of (2R,4R)-monatin potassium salt and sweetener composition containing same” (Ajinomoto Co., Inc., priority 2004, dated 2009):
Where a name gives a salt, the structure may show the parent alone. Read-outs that look alike come from different tables or passages of the source.

Columns and labels:
[1] = type: physicochemical; details: for area %: HPLC area of (2R,4R)-monatin relative to total peak area, 210 nm, 60° C. preservation sample; for area % / weight change (%): 1 week; for weight change (%): HPLC quantitation value of 60° C. sample, room temperature sample = 100%
Method: The crystals of the (2R,4R)-monatin dipotassium salt obtained in Example 1 and Example 9, and crystals of the (2R,4R)-monatin monopotassium salt produced according to the production method described in the aforementioned WO03/045914 were subjected to a preservation stability test. Each sample (50 mg) was placed in a 4 ml vial (with screw cap) and stored at 60° C. and room temperature for 1 week.
A chromatogram for each sample was measured by HPLC, and the HPLC quantitation value of the 60° C. preservation sample, when that of the room temperature preservation sample was 100%, was shown as a weight change. In addition, an HPLC chromatogram of each sample was measured and the ratio of the area value of (2R,4R)-monatin relative to the total area value of the entire peaks detected (detection wavelength: 210 nm) in the 60° C. preservation sample was expressed as the area %.

[2] = type: physicochemical; details: for transmittance (%): 1 g/dl in H2O, room temperature, 490 nm
Excerpt: The crystals of the (2R,4R)-monatin dipotassium salt obtained in Example 9, (2R,4R)-monatin, and crystals of the (2R,4R)-monatin monopotassium salt produced according to the production method described in the aforementioned WO03/045914 were subjected to a coloring test. Measurement Method of Coloring Test: • Measurement device: CARY 50 UV-VIS spectrophotometer manufactured by Varian Technologies Japan Limited; • Concentration: 1 g/dl; • Solvent: H2O; • Temperature: room temperature; • Measurement wavelength: 490 nm; and • Measurement interval: 30 minutes.

[3] = type: physicochemical
Method: The crystals of the (2R,4R)-monatin dipotassium salt obtained in Example 9 and crystals of the (2R,4R)-monatin monopotassium salt were tested for solubility using the following conditions” • Temperature: 20° C.; and
Solubility measurement method: Two test tubes for each of 0, 20, 40, 60, 80, 100% ethanol, which contained 2 ml thereof were prepared. The crystals of the (2R,4R)-monatin dipotassium salt and crystals of the (2R,4R)-monatin monopotassium salt were added thereto in an amount prohibiting complete dissolution. The test tubes were capped and stirred overnight. Then, the mixture was passed through a filter (0.45 μm) and the filtrate was analyzed.

SMILES | area % ([1]; dipotassium salt) [%] | weight change (%) ([1]; dipotassium salt) | color stability [2] | transmittance (%) ([2]; time 0.0 hour) | transmittance (%) ([2]; time 2.0 hour) | transmittance (%) ([2]; time 4.0 hour) | transmittance (%) ([2]; time 6.0 hour) | transmittance (%) ([2]; time 8.0 hour) | transmittance (%) ([2]; time 10.0 hour) | transmittance (%) ([2]; time 12.0 hour) | transmittance (%) ([2]; time 14.0 hour) | transmittance (%) ([2]; time 16.0 hour) | transmittance (%) ([2]; time 18.0 hour) | transmittance (%) ([2]; time 20.0 hour) | transmittance (%) ([2]; time 22.0 hour) | preservation stability [1] | area % [1] [%] | weight change (%) [1] [%] | solubility [3]
N[C@H](C[C@](O)(Cc1c[nH]c2ccccc12)C(=O)[O-])C(=O)[O-].[K+].[K+] [Example 1, (2R,4R)-monatin dipotassium salt] | 98.4 | 99 | – | – | – | – | – | – | – | – | – | – | – | – | – | – | – | – | –
N[C@H](C[C@](O)(Cc1c[nH]c2ccccc12)C(=O)[O-])C(=O)[O-].[K+].[K+] [Example 9, (2R,4R)-monatin dipotassium salt] | – | – | superior | 99.63 | 99.60 | 99.51 | 99.43 | 99.44 | 99.44 | 99.41 | 99.42 | 99.39 | 99.35 | 99.39 | 99.38 | almost of the same level | 99.6 | 103 | superior
NC(CC(O)(Cc1c[nH]c2ccccc12)C(=O)O)C(=O)O [(2R,4R)-monatin monopotassium salt] | – | – | – | 100.02 | 99.75 | 99.28 | 98.42 | 97.98 | 96.86 | 95.61 | 94.35 | 92.97 | 91.49 | 90.05 | 88.75 | – | 99.8 | 100 | –
